Laboratory results from patent US11951210B2, “Methods for making giant vesicles and their use” (THE JOHNS HOPKINS UNIVERSITY, priority 2017, dated 2024).

Molecular target: FKBP (FK506 binding protein) and FRB (FKBP-rapamycin binding) protein (Homo sapiens, UniProt P42345+P62942)
Experiment: Chemically inducible dimerization (FKBP/FRB) protein translocation in GUVs on external rapamycin
Assay type: biochemical
Conditions: rapamycin added outside the vesicles
Description: 3A) Schematic of the GUV containing fluorescently-labeled FK506 binding protein (FKBP) and FKBP-rapamycin binding (FRB) proteins. In this embodiment, FKBP peptide is fused to the positively charged myristoylated alanine-rich protein kinase c substrate (MARCKS) domain and binds to the negatively charged phosphatidylserine lipids present at the inner leaflet. The FKBP binding partner, FRB, is luminal. […] The normalized intensity profiles are the intensity traces of the dashed line in each image.
This was achieved by using the chemically inducible dimerization paradigm where FKBP (FK506 binding protein) and FRB (FKBP-rapamycin binding) protein can hetrodimerize in the presence of rapamycin.

Sequence of FKBP (FK506 binding protein) and FRB (FKBP-rapamycin binding) protein (P62942 whole entry): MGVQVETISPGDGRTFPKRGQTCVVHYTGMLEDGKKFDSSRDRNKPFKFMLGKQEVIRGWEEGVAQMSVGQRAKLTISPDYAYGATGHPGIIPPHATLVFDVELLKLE
Sequence of FKBP (FK506 binding protein) and FRB (FKBP-rapamycin binding) protein (P42345 2012-2144 limits assumed): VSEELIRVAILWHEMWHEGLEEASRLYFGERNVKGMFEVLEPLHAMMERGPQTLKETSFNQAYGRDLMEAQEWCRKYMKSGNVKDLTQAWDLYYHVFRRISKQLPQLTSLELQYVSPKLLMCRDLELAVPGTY

Permeation of the GUV membrane: permeates the vesicles
Structure (SMILES): CO[C@H]1C[C@@H]2CC[C@@H](C)[C@@](O)(O2)C(=O)C(=O)N2CCCC[C@H]2C(=O)O[C@H]([C@H](C)C[C@@H]2CC[C@@H](O)[C@H](OC)C2)CC(=O)[C@H](C)/C=C(\C)[C@@H](O)[C@@H](OC)C(=O)[C@H](C)C[C@H](C)/C=C/C=C/C=C/1C [rapamycin]
